Results taken from the NIST ThermoML archive (doi:10.1016/j.tca.2018.08.022).
Numbers after ± are expanded uncertainties.

Experiments:
[1] = for mass density: 101.33 kPa, X-ray diffraction
[2] = Molar enthalpy of transition or fusion; settings: DSC

Compound | Triple point temperature ([1]; Crystal, visual observation) [K] | Triple point temperature ([1]; Crystal 1, DSC) [K] | Triple point temperature ([1]; Metastable crystal, DSC) [K] | Molar enthalpy of transition or fusion ([2]; Crystal 1) [kJ/mol] | Molar enthalpy of transition or fusion ([2]; Crystal 2) [kJ/mol] | Triple point temperature ([1]; Crystal 2, DSC) [K] | further results
N#Cc1ccc(-c2ccc([N+](=O)[O-])cc2C#N)cc1C#N [4-nitro-[1,1'-biphenyl]-2,3',4'-tricarbonitrile] | 472.15 ± 3 | – | – | – | – | – | –
N#Cc1cc(N)ccc1-c1ccc2c(c1)C(=O)NC2=O [5-amino-2-(1,3-dioxoisoindolin-5-yl)benzonitrile] | 589.15 ± 3 | – | – | – | – | – | –
N#Cc1ccc(-c2ccc(N)cc2C#N)cc1C#N [4-amino-[1,1'-biphenyl]-2,3',4'-tricarbonitrile] | 558.15 ± 3 | – | – | – | – | – | –
CCCCCCCCN(CCCCCCCC)c1ccc(N=Nc2ccc(-c3ccc(C#N)c(C#N)c3)c(C#N)c2)cc1 | – | 368.35 ± 0.8 | 365.05 ± 0.8 | – | – | – | mass density ([1]; 296 K, Metastable crystal): 1124 ± 7 kg/m3
CCCCN(CCCC)c1ccc(N=Nc2cccc(C#N)c2-c2ccc(C#N)c(C#N)c2)cc1 | – | 469.05 ± 0.8 | – | 35.5 ± 1.3 | 2.7 ± 0.2 | 386.25 ± 0.8 | mass density ([1]; 296 K, Crystal 2): 1180 ± 6 kg/m3
CCN(CC)c1ccc(N=Nc2ccc(-c3ccc(C#N)c(C#N)c3)c(C#N)c2)cc1 | – | 503.45 ± 0.8 | 489.35 ± 0.8 | 34 ± 1.2 | 5.5 ± 0.3 | 487.95 ± 0.8 | mass density ([1]; 296 K, Crystal 2): 1217 ± 8 kg/m3
CCCCN(CCCC)c1ccc(N=Nc2ccc(-c3ccc(C#N)c(C#N)c3)c(C#N)c2)cc1 | – | 427.35 ± 0.8 | 403.45 ± 0.8 | 35.1 ± 1.3 | – | – | mass density ([1]; 296 K, Crystal 1): 1165 ± 6 kg/m3; Glass transition temperature ([1]; Glass, DSC): 42.00 ± 0.8 °C
CCCCN(CCCC)c1ccc(N=Nc2ccc(-c3ccc4c(c3)C(=O)NC4=O)c(C#N)c2)cc1 | – | 456.85 ± 0.8 | – | 28.1 ± 1 | 2.6 ± 0.2 | 436.45 ± 0.8 | mass density ([1]; 200 K, Crystal 2): 1262 ± 7 kg/m3
N#Cc1cc([N+](=O)[O-])ccc1-c1ccc2c(c1)C(=O)NC2=O [2-(1,3-dioxoisoindolin-5-yl)-5-nitrobenzonitrile] | 567.15 ± 3 | – | – | – | – | – | –
